Test system: Influenza A/Hong Kong/2369/2009 (H1N1)
Conditions: mouse, in vivo

Q: For `CCOC(=O)C1=C[C@@H](OC(CC)CC)[C@H](NC(C)=O)[C@@H](N)C1` [Oseltamivir], which “mean peak weight loss” value is on record?
A: −32%

Q: What about the “mice that succumbed to the disease” value of the same molecule?
A: 90%

Q: What about the treatment effect of the same molecule?
A: no significant effect
